System: not listed separately
Assay: Alternative chloroform test on mice: ventricular tachycardia inhibition and ataxia
Type: in vivo
Settings: mouse, in vivo; sc.; mice, observed for 20 min; read-out: Ataxia ED50
Experimental: (§1) In an alternative chloroform test on mice the ventricular tachycardia inhibition by the test compounds are observed. Thereby the test solution is given subcutaneous and the animal is observed for CNS-effects for 20 min. The mouse is put into a chamber with chloroform until it stops breathing (approx 30 sec.). The animal is then secured on a cork-board and ECG is monitored. If the ventricular rythm is less than 520 beats per min., the animal was protected against ventricular tachycardia. Groups of 10 animals were tested for each dose-level'and the ED50-values have been calculated therefrom. During the test the side-effect ataxia (incordination of movements) is observed.
(§2) In Table 5, as shown, the new compounds tested exerted antiarrhythmic effects also in this te-st.

**Q.** With CC(=O)Nc1ccc(OCC(O)CNC(C)C)cc1 (centres unmarked) [Practolol, reference compound] as the compound, how does the TD50 at 20 min read?
**A.** > 50 mg/kg

**Q.** With COCCc1ccc(OCC(O)CNCCCCc2ccccc2)cc1 (centres unmarked) [Ex. 11, 3-(4-phenylbutylamino)-1-[4-(2-methoxyethyl)phenoxy]-propanol--2] as the compound, how does the TD50 at 20 min read?
**A.** > 50 mg/kg

System: chloroform induced ventricular tachy-cardia
Assay: as above
Type: in vivo
Settings: Mus musculus; sc.; mice, chloroform; groups of 10 animals per dose-level
Experimental: as §1, §2

**Q.** With CC(=O)Nc1ccc(OCC(O)CNC(C)C)cc1 (centres unmarked) [Practolol, reference compound] as the compound, how does the ED50 read?
**A.** 2 mg/kg

**Q.** Which ED50 does the source give for COCCc1ccc(OCC(O)CNCCCCc2ccccc2)cc1 (centres unmarked) [Ex. 11, 3-(4-phenylbutylamino)-1-[4-(2-methoxyethyl)phenoxy]-propanol--2] here?
**A.** 15 mg/kg

Same assay, conditions: mouse, in vivo, sc, 20 min

**Q.** For COCCc1ccc(OCC(O)CNCCc2ccccc2)cc1 (centres unmarked) [Ex. 14, 3-(2-phenethylamino)-1-[4-(2-methoxyethyl)phenoxy]-propanol-2], which “Ataxia ED50” value is on record?
**A.** 40 mg/kg

Same assay, conditions: sc.; mice, chloroform; groups of 10 animals per dose-level

**Q.** Which “Ventricular tachy-cardia inhibition ED50” value does the source give for COCCc1ccc(OCC(O)CNCCc2ccccc2)cc1 (centres unmarked) [Ex. 14, 3-(2-phenethylamino)-1-[4-(2-methoxyethyl)phenoxy]-propanol-2] here?
**A.** 10 mg/kg

System: ouabain-induced arrhythmias
Assay: Ouabain-induced arrhythmias in anesthetized guinea-pigs
Type: in vivo
Settings: animals with antiarrhythmic effect / animals tested; dose 0.3 mg/kg i.v.
Experimental: Guinea-pigs of either.sex (300-400 g) were anesthetized with urethane 1,4 g/kg i.p. and tracheotomized. ECG, lead II was picked up with needle electrodes and was registered continuously throughout the experiment. Two i.v. catheters were inserted: one for the administration of ouabain, the other for the test solution.
The experimental design for the study of antiarrhythmic activities is schematically shown in the head of Table 2. The arrhythmia was induced by automatic infusion of ouabain, 18 µg/kg/60" every two minutes for twelve minutes and thereafter 9 µg/kg/30" every two minutes throughout the whole experiment and the infusion was not stopped until asystole occurred. As soon as the frequency of ventricular premature beats (VPB) had passed 50 per cent, the test solution was given i.v. (0,2 ml/min) during 2 min. (see head of Table 2).

**Q.** Which “A-A EFFECT IN NUMBER OF ANIMALS” value does the source give for COCCc1ccc(OCC(O)CNC(C)Cc2ccc(O)cc2)c(Br)c1 (centres unmarked) [EX 4, 3-[1-methyl-2-i4-hydroxyphenyl)-ethylaminol-1-[4-(2-methoxyethyl)-2-bromophenoxy]-propanol-2] here?
**A.** 3/6

Same assay, conditions: animals with antiarrhythmic effect / animals tested; dose 1.0 mg/kg i.v.

**Q.** With COCCc1ccc(OCC(O)CNC(C)Cc2ccc(O)cc2)c(Br)c1 (centres unmarked) [EX 4, 3-[1-methyl-2-i4-hydroxyphenyl)-ethylaminol-1-[4-(2-methoxyethyl)-2-bromophenoxy]-propanol-2] as the compound, how does the “A-A EFFECT IN NUMBER OF ANIMALS” value read?
**A.** 6/6

Same assay, conditions: frequency of ventricular premature beats after test solution; dose 0.3 mg/kg i.v.

**Q.** With COCCc1ccc(OCC(O)CNC(C)Cc2ccc(O)cc2)c(Br)c1 (centres unmarked) [EX 4, 3-[1-methyl-2-i4-hydroxyphenyl)-ethylaminol-1-[4-(2-methoxyethyl)-2-bromophenoxy]-propanol-2] as the compound, how does the “LOWEST FREQUENCY” value read?
**A.** 31±14%

Same assay, conditions: frequency of ventricular premature beats after test solution; dose 1.0 mg/kg i.v.

**Q.** With COCCc1ccc(OCC(O)CNC(C)Cc2ccc(O)cc2)c(Br)c1 (centres unmarked) [EX 4, 3-[1-methyl-2-i4-hydroxyphenyl)-ethylaminol-1-[4-(2-methoxyethyl)-2-bromophenoxy]-propanol-2] as the compound, how does the “LOWEST FREQUENCY” value read?
**A.** 6±3%

Same assay, conditions: time of asystole under continued ouabain; dose 0.3 mg/kg i.v.

**Q.** Which ASYSTOLE does the source give for COCCc1ccc(OCC(O)CNC(C)Cc2ccc(O)cc2)c(Br)c1 (centres unmarked) [EX 4, 3-[1-methyl-2-i4-hydroxyphenyl)-ethylaminol-1-[4-(2-methoxyethyl)-2-bromophenoxy]-propanol-2] here?
**A.** 27 ± 1 min

Same assay, conditions: time of asystole under continued ouabain; dose 1.0 mg/kg i.v.

**Q.** With COCCc1ccc(OCC(O)CNC(C)Cc2ccc(O)cc2)c(Br)c1 (centres unmarked) [EX 4, 3-[1-methyl-2-i4-hydroxyphenyl)-ethylaminol-1-[4-(2-methoxyethyl)-2-bromophenoxy]-propanol-2] as the compound, how does the ASYSTOLE read?
**A.** 41 ± 3 min

Same assay, conditions: time of ventricular fibrillation under continued ouabain; dose 0.3 mg/kg i.v.

**Q.** For COCCc1ccc(OCC(O)CNC(C)Cc2ccc(O)cc2)c(Br)c1 (centres unmarked) [EX 4, 3-[1-methyl-2-i4-hydroxyphenyl)-ethylaminol-1-[4-(2-methoxyethyl)-2-bromophenoxy]-propanol-2], which V-FIB is on record?
**A.** 19 ± 1 min

Same assay, conditions: time of ventricular fibrillation under continued ouabain; dose 1.0 mg/kg i.v.

**Q.** Which V-FIB does the source give for COCCc1ccc(OCC(O)CNC(C)Cc2ccc(O)cc2)c(Br)c1 (centres unmarked) [EX 4, 3-[1-methyl-2-i4-hydroxyphenyl)-ethylaminol-1-[4-(2-methoxyethyl)-2-bromophenoxy]-propanol-2] here?
**A.** 31±3 (N=4) min

System: not listed separately
Assay: Conscious dogs with ligation of a coronary artery according to Harris: ectopics and convulsions
Type: in vivo
Settings: in vivo; iv.; conscious dog; mean value for 3-5 dogs; read-out: ED50 Convulsive
Description: (§3) Male beagle dogs, 7-13 kg, undergo two days prior to the test a surgical ligation of a coronary artery. On the day of the test the conscious dog is secured in a canvas sling in a standing position and given increasing doses of the test compounds by intravenous administration. ECG, blood pressure etc are monitored and attention is paid to all CNS-effects. The dogs have almost 100 percent of ectopics prior to administration of the compound to be tested. Effects of the test drug on the frequency of ectopics are calculated from ECG. The accumulative end doses giving 50% and 90% reduction of ectopics as well as the ED50 values which give convulsions (side-effect) are measured and given below in Table 3. The value for convulsions is a mean value for 3-5 dogs.
(§4) x) The value given is the final value in a series of doses 0.5 + 1 + 2 + 4 + 8 mg/kg i.v. giving 50% reduction of ectopics. 30 min interval between doses.
(§5) Table 3: Antiarrythmic effect and CNS-effects of four β-receptor blockers, a membrane stabilizer, and ten new compounds with combined β-blocking and membrane stabilizing effect.

**Q.** For CC(=O)Nc1ccc(OCC(O)CNC(C)C)cc1 (centres unmarked) [Practolol, reference compound], which TD50 is on record?
**A.** > 16 mg/kg

**Q.** Which TD50 does the source give for COCCc1ccc(OCC(O)CNCCCCc2ccccc2)cc1 (centres unmarked) [Ex. 11, 3-(4-phenylbutylamino)-1-[4-(2-methoxyethyl)phenoxy]-propanol--2] here?
**A.** 8 mg/kg

System: ectopics
Assay: as above
Type: in vivo
Settings: Canis lupus familiaris; iv.; accumulative end dose giving 50% reduction of ectopics; read-out: Conscious dog Harris ligation Ectopics -50%
Description: as §3, §4, §5

**Q.** Which ED50 does the source give for CC(=O)Nc1ccc(OCC(O)CNC(C)C)cc1 (centres unmarked) [Practolol, reference compound] here?
**A.** > 16 mg/kg

**Q.** Which ED50 does the source give for COCCc1ccc(OCC(O)CNCCCCc2ccccc2)cc1 (centres unmarked) [Ex. 11, 3-(4-phenylbutylamino)-1-[4-(2-methoxyethyl)phenoxy]-propanol--2] here?
**A.** 1 mg/kg

Same assay, conditions: Canis lupus familiaris; iv.; accumulative end dose giving 90% reduction of ectopics; read-out: Conscious dog Harris ligation Ectopics -90%

**Q.** For CC(=O)Nc1ccc(OCC(O)CNC(C)C)cc1 (centres unmarked) [Practolol, reference compound], which ED90 is on record?
**A.** > 16 mg/kg

**Q.** With COCCc1ccc(OCC(O)CNCCCCc2ccccc2)cc1 (centres unmarked) [Ex. 11, 3-(4-phenylbutylamino)-1-[4-(2-methoxyethyl)phenoxy]-propanol--2] as the compound, how does the ED90 read?
**A.** 2 mg/kg

Same assay, conditions: dog, in vivo, iv

**Q.** For COCCc1ccc(OCC(O)CNCCc2ccccc2)cc1 (centres unmarked) [Ex. 14, 3-(2-phenethylamino)-1-[4-(2-methoxyethyl)phenoxy]-propanol-2], which “ED50 Convulsive” value is on record?
**A.** 6 to 8 mg/kg

Same assay, conditions: iv.; accumulative end dose giving 50% reduction of ectopics

**Q.** Which “Conscious dog Harris ligation Ectopics -50%” value does the source give for COCCc1ccc(OCC(O)CNCCc2ccccc2)cc1 (centres unmarked) [Ex. 14, 3-(2-phenethylamino)-1-[4-(2-methoxyethyl)phenoxy]-propanol-2] here?
**A.** 1 mg/kg

Same assay, conditions: iv.; accumulative end dose giving 90% reduction of ectopics

**Q.** With COCCc1ccc(OCC(O)CNCCc2ccccc2)cc1 (centres unmarked) [Ex. 14, 3-(2-phenethylamino)-1-[4-(2-methoxyethyl)phenoxy]-propanol-2] as the compound, how does the “Conscious dog Harris ligation Ectopics -90%” value read?
**A.** 2 mg/kg

From patent EP0007294A2, “Membrane stabilizing compounds having beta-receptor blocking activity, their preparation, method for treatment of arrhythmic conditions, and pharmaceutical preparations containing same” (priority 1978, dated 1980)
